In brackets after ≈: the same amount, converted by molar mass.
Tested on: Aedes aegypti
Test: Larvicidal activity against second instar larvae of Aedes aegypti
Format: functional

Compound	LC50
C#CCCCCCCCCCCC1=C[C@H](C)OC1=O	0.41 µg/mL (≈ 1.56 µM)
C=CCCCCCCCCCCC1=C[C@H](C)OC1=O	0.47 µg/mL (≈ 1.78 µM)

From ChEMBL document CHEMBL1150576, “Two new lactones with mosquito larvicidal activity from three Hortonia species” (2001)
